Data on 22 compounds can be found in PubChem BioAssay AID330 (DTP/NCI, 2004).

Where “and” joins values, the source holds several entries; their conditions need not be identical. Equal values may be shown once. Toxic doses and inconclusive results are not listed.

The assay relates to P388 leukemia ip, CD2F1 mice, survival T/C. The experiment in a line: NCI In Vivo Anticancer Drug Screen. Data for tumor model P388 Leukemia (intraperitoneal) in CD2F1 (CDF1) mice. To be noted: endpoint: median survival time, higher = longer survival. In short, it runs like this:
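Mice carrying the transplanted tumor received test compound or vehicle. Survival was recorded in each group, and the value is the treated-group measurement divided by that of the vehicle-treated control group.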

Where [1] appears, read: dose: 12.5 mg/kg/injection, schedule: Q01DX009 (ip), vehicle: saline with Tween-80.
Setting [2] is: dose: 25.0 mg/kg/injection, schedule: Q01DX009 (ip), vehicle: saline with Tween-80.
Setting [3] is: dose: 50.0 mg/kg/injection, schedule: Q01DX009 (ip), vehicle: saline with Tween-80.
[4] abbreviates: dose: 50.0 mg/kg/injection, schedule: Q01DX009 (ip), vehicle: saline.
Where [5] appears, read: dose: 200.0 mg/kg/injection, schedule: Q01DX009 (ip), vehicle: saline.
Where [6] appears, read: dose: 50.0 mg/kg/injection, schedule: Q01DX005 (ip), vehicle: saline.
Setting [7] is: dose: 60.0 mg/kg/injection, schedule: Q01DX005 (ip), vehicle: Klucel (hydroxypropylcellulose) (HPC).
The mark [8] stands for this setting: dose: 60.0 mg/kg/injection, schedule: Q01DX005 (ip), vehicle: saline with Tween-80.
Where [9] appears, read: dose: 120.0 mg/kg/injection, schedule: Q01DX005 (ip), vehicle: saline with Tween-80.
Setting [10] is: dose: 200.0 mg/kg/injection, schedule: Q01DX001 (ip), vehicle: Klucel (hydroxypropylcellulose) (HPC).
Setting [11] is: dose: 240.0 mg/kg/injection, schedule: Q01DX005 (ip), vehicle: saline with Tween-80.
Setting [12] is: dose: 50.0 mg/kg/injection, schedule: Q01DX005 (ip), vehicle: Klucel (hydroxypropylcellulose) (HPC).
The mark [13] stands for this setting: dose: 100.0 mg/kg/injection, schedule: Q01DX005 (ip), vehicle: Klucel (hydroxypropylcellulose) (HPC).
[14] abbreviates: dose: 100.0 mg/kg/injection, schedule: Q04DX002 (ip), vehicle: Klucel (hydroxypropylcellulose) (HPC).

`Cc1ccc(N=C(SSC(Cl)(Cl)Cl)SSC(Cl)(Cl)Cl)cc1`: the T/C (dose: 6.25 mg/kg/injection, schedule: Q01DX009 (ip), vehicle: saline with Tween-80) was 91 % of control; the T/C under setting [1] is 99 % of control; the T/C under setting [2] was 100 % of control; the T/C (dose: 50.0 mg/kg/injection, schedule: Q01DX009 (ip), vehicle: saline + alcohol) was 104 % of control; the T/C under setting [3] was 101 % of control.
On to `COc1ccc(CS(=O)CC(N)C(=O)O)cc1` (stereo not drawn), for which the T/C reads like this: (dose: 100.0 mg/kg/injection, schedule: Q04DX002 (ip), vehicle: saline with Tween-80) 98 % of control; (dose: 200.0 mg/kg/injection, schedule: Q04DX002 (ip), vehicle: saline with Tween-80) 104 % of control; (dose: 400.0 mg/kg/injection, schedule: Q04DX002 (ip), vehicle: saline with Tween-80) 86 % of control.
`CCCc1[nH]n(-c2ccccc2)c(=O)c1N=Nc1cccc(C(F)(F)F)c1`: the T/C is 93 % of control under setting [4]; 96 % of control (dose: 100.0 mg/kg/injection, schedule: Q01DX009 (ip), vehicle: saline); 90 % of control under setting [5].
`COC1=CC(=[N+]2CCCCC2)CC(C)(C)C1`: the T/C is 98 % of control (dose: 25.0 mg/kg/injection, schedule: Q01DX005 (ip), vehicle: saline) and 100 % of control under setting [6].
Take `C=CCNC(=S)NCCN(CCO)C(=S)NCC=C`: the T/C is, setting by setting: (dose: 12.5 mg/kg/injection, schedule: Q01DX009 (ip), vehicle: saline) 105 % of control; (dose: 25.0 mg/kg/injection, schedule: Q01DX009 (ip), vehicle: saline) 104 % of control; under setting [4], 104 % of control and 93 % of control; under setting [5], 98 % of control.
Regarding `COc1ccc(C2C(C(=O)NCc3ccccc3)=C(C)NC(C)=C2C(=O)NCc2ccccc2)cc1OC`, the T/C runs as follows: (dose: 15.0 mg/kg/injection, schedule: Q01DX005 (ip), vehicle: Klucel (hydroxypropylcellulose) (HPC)) 100 % of control; (dose: 30.0 mg/kg/injection, schedule: Q01DX005 (ip), vehicle: Klucel (hydroxypropylcellulose) (HPC)) 100 % of control; under setting [7], 100 % of control and 88 % of control.
Regarding `C=C1CCC2C(C)(CO)C(O)CCC2(C)C1CCC1=CCOC1=O` (stereo not drawn), the T/C reads like this: (dose: 11.0 mg/kg/injection, schedule: Q01DX005 (ip), vehicle: Klucel (hydroxypropylcellulose) (HPC)) 110 % of control; (dose: 22.0 mg/kg/injection, schedule: Q01DX005 (ip), vehicle: Klucel (hydroxypropylcellulose) (HPC)) 99 % of control; (dose: 44.0 mg/kg/injection, schedule: Q01DX005 (ip), vehicle: Klucel (hydroxypropylcellulose) (HPC)) 99 % of control; (dose: 88.0 mg/kg/injection, schedule: Q01DX005 (ip), vehicle: Klucel (hydroxypropylcellulose) (HPC)) 97 % of control.
Consider `CC1(COc2ccccc2OCC2(C)CO2)CO1` (stereo not drawn), for which the T/C is, setting by setting: (dose: 1.88 mg/kg/injection, schedule: Q01DX005 (ip), vehicle: saline with Tween-80) 102 % of control; (dose: 3.75 mg/kg/injection, schedule: Q01DX005 (ip), vehicle: saline with Tween-80) 100 % of control; (dose: 7.5 mg/kg/injection, schedule: Q01DX005 (ip), vehicle: saline with Tween-80) 98 % of control; (dose: 15.0 mg/kg/injection, schedule: Q01DX005 (ip), vehicle: saline with Tween-80) 100 % of control; (dose: 30.0 mg/kg/injection, schedule: Q01DX005 (ip), vehicle: saline with Tween-80) 100 % of control; under setting [8], 102 % of control. For the same compound, the T/C under setting [9] is 107 % of control.
As to `Cc1ccc(C2(O)CC3CCC(C2)N3C)cc1` (stereo not drawn), the T/C was 103 % of control (dose: 100.0 mg/kg/injection, schedule: Q01DX001 (ip), vehicle: Klucel (hydroxypropylcellulose) (HPC)); 110 % of control under setting [10]; 101 % of control (dose: 400.0 mg/kg/injection, schedule: Q01DX001 (ip), vehicle: Klucel (hydroxypropylcellulose) (HPC)).
On to `CN1CC(=O)NC2C(=CN(Cc3ccccc3)c3ccccc32)C1=O` (stereo not drawn), for which the T/C under setting [8] was 100 % of control, the T/C under setting [9] is 90 % of control and the T/C under setting [11] was 90 % of control.
As for `COc1c(OC)c([N+](=O)[O-])c2c(c1[N+](=O)[O-])COC2=O`, the T/C runs as follows: under setting [12], 104 % of control; under setting [13], 103 % of control.
As to `COc1ccc2c(c1)[C@@]13CCCCC1[C@@H](C2)NCC3` (stereo partly drawn), the T/C under setting [14] is 101 % of control.
With `CCN(CC)CCNc1cc(OC)c(C)c2cccnc12`, the T/C was 104 % of control under setting [6] and 109 % of control (dose: 100.0 mg/kg/injection, schedule: Q01DX005 (ip), vehicle: saline).
For the compound `COc1ccc(C2=C(Cl)C(=O)N(c3ccc(OC)cc3OC)C(=O)C2(Cl)Cl)cc1`, the T/C reads like this: under setting [14], 98 % of control; (dose: 200.0 mg/kg/injection, schedule: Q04DX002 (ip), vehicle: Klucel (hydroxypropylcellulose) (HPC)) 101 % of control; (dose: 400.0 mg/kg/injection, schedule: Q04DX002 (ip), vehicle: Klucel (hydroxypropylcellulose) (HPC)) 117 % of control.
Consider `CCOC(=O)N1Cc2cc3ccccc3nc2C1CC(=O)O` (stereo not drawn), for which the T/C (dose: 200.0 mg/kg/injection, schedule: Q01DX009 (ip), vehicle: Klucel (hydroxypropylcellulose) (HPC)) is 95 % of control and the T/C (dose: 400.0 mg/kg/injection, schedule: Q01DX009 (ip), vehicle: Klucel (hydroxypropylcellulose) (HPC)) was 104 % of control.
Regarding `C/C(=C(/O)c1ccc(Cl)cc1)c1nc2ccc(Cl)cc2[nH]c1=O`, the T/C runs as follows: under setting [7], 96 % of control; (dose: 120.0 mg/kg/injection, schedule: Q01DX005 (ip), vehicle: Klucel (hydroxypropylcellulose) (HPC)) 101 % of control.
For the compound `c1ccc(-c2ccc[n+](CCCC[n+]3cccc(-c4ccccn4)c3)c2)nc1`, the T/C was 106 % of control (dose: 7.5 mg/kg/injection, schedule: Q01DX005 (ip), vehicle: saline) and 106 % of control (dose: 15.0 mg/kg/injection, schedule: Q01DX005 (ip), vehicle: saline).
Consider `Clc1ccc(N=c2ccn3ccccc3c2)cc1Cl`, for which the T/C is, setting by setting: under setting [1], 94 % of control; under setting [2], 94 % of control; under setting [3], 97 % of control.
As for `O=C(Nc1ccc(Cl)cc1)NN1CCCCCC1`, the T/C runs as follows: (dose: 25.0 mg/kg/injection, schedule: Q04DX002 (ip), vehicle: saline with Tween-80) 103 % of control; (dose: 50.0 mg/kg/injection, schedule: Q04DX002 (ip), vehicle: saline with Tween-80) 98 % of control.
On to `Nc1nc(C2CCCC2)c(Br)c(=O)[nH]1`, for which the T/C is 101 % of control under setting [12]; 103 % of control under setting [13]; 105 % of control (dose: 200.0 mg/kg/injection, schedule: Q01DX005 (ip), vehicle: Klucel (hydroxypropylcellulose) (HPC)).
For the compound `Cc1ccc(S(=O)(=O)NN=C2C(C)C(c3ccccc3)NC(c3ccccc3)C2C)cc1` (stereo not drawn), the T/C under setting [10] was 88 % of control.
For `CCOC(=O)C1=C(Nc2cccc3c(NC4=C(C(=O)OCC)C(=O)CO4)cccc23)OCC1=O`, the T/C was 109 % of control under setting [8], 99 % of control under setting [9] and 98 % of control under setting [11].
